{"source": "paper PMC9145393", "about": "“Design, Semisynthesis, and Estrogenic Activity of Lignan Derivatives from Natural Dibenzylbutyrolactones” (Pharmaceuticals, 2022)", "key": {"[1]": {"molecular_target": "T1, rhERα-LBD (Homo sapiens, UniProt P03372)", "T1 sequence (P03372 311-547 limits assumed)": "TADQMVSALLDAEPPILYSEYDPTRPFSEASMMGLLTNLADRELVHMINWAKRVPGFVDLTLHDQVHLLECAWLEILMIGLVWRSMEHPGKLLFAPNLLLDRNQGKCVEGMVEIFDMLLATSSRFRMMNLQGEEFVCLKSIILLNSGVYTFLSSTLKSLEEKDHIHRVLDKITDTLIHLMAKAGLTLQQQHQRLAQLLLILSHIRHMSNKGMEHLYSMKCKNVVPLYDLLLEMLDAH", "experiment": "LanthaScreen TR-FRET competitive binding assay", "conditions": "10-point competition curves, Mean ± SE", "procedure": "Next, the binding of lignan derivatives to the LBD of rhERα was analyzed by using time-resolved fluorescence resonance energy transfer (TR-FRET) competitive binding assay. […] The LanthaScreen^TM TR-FRET Nuclear Receptor (NR) binding assay (SelectScreen^TM Profiling Service, Life Technologies, Carlsbad, CA, USA) was used for screening of potential binding of lignan derivatives to human ERα [33]. Briefly, the kit uses the recombinant human ERα (rhERα) protein and a tight binding, selective fluorescent ligand, Fluormone^TM tracer. […] The rhERα protein and the tracer form rhERα/tracer complex, resulting in a high FP value. […] Dose-response competition curves were fitted by nonlinear regression analyses in the GraphPad software 8 (GraphPad Software, San Diego, CA, USA) to obtain IC50 values.\nData are expressed as mean ± SEM for from at least three independent experiments, where each concentration is tested in triplicate."}, "[2]": {"system": "ER-dependent transcriptional activity in T47D-KBluc cells", "experiment": "ERE-luciferase reporter in T47D-KBluc cells, agonist assessment (absence of E2)", "type": "cell-based, human", "design": "Emax: dose or concentration left out as unconfirmed", "conditions": "for Emax: Homo sapiens, read-out: E/Emax (%) VEH; for E/Emax (%) VEH: lignans 5 μM, absence of E2 (VEH), relative to Emax induced by 0.1 nM E2, Mean ± SEM", "procedure": "(§1) Lactols (5) and (6) were tested as a mixture of the two epimers obtained.\n(§2) Chemical screening was carried out by using T47D-KBluc cells, an ER+ BC cell line that is stably transfected with the pGL2.TATA.Inr.Luc.neo containing three ER-responsive elements (ERE). The T47D-KBluc cells were maintained in standard growth media as detailed above. Dosing media was further modified by reduction of DCC-FBS to 5%. […] Chemical screening was also carried out by using the triple negative BC cell line MDA-kb2 cells that stably expresses pMMTV.neo.luc gene, an AR- and GR-responsive reporter gene. […] The T47D-KBluc cells or the MDA-kb2 cells were seeded at 100,000 cells per well in 24-well plates (Nunclon, Sigma-Aldrich, Darmstadt, Germany ) and allowed to attach overnight. Then, the media was replaced with 1 mL/well of dosing media and test compounds incubated 24 h. Then, the cells were harvested in 100 µL passive lysis buffer (Promega, Madison, WI, USA) per well. The relative light units (RLUs), which correspond to luciferase activity from each sample, were measured by using Luciferase Assay Reagent (Promega) in a Clarity luminescence microplate reader (BIOTEK, Winooski, VT, USA). The RLUs from each sample were normalized by protein concentration and converted to fold induction with respect to vehicle-treated control. […] Then, the percent of efficacy (E) of each tested compound, as compared with Emax, was calculated. […] Data are expressed as mean ± SEM of triplicate independent experiments, where each treatment was assayed in triplicate. […] Duplicate plates were dosed in parallel to control the effects of compounds on cell viability. The protein concentration was measured in cell lysate using colorimetric assay reagent (BioRad, CA, USA)."}, "[3]": {"system": "T47D cells", "experiment": "MTT cell viability, E2-depleted T47D cells", "type": "cell-based, human", "conditions": "10 μM, 24 h, absence of E2", "procedure": "The effects of lignan derivatives were evaluated on human ER+ BC cells.\nCells were maintained in RPMI (Lonza, Basel, Switzerland) growth media, without phenol red, supplemented with 10% fetal bovine serum (FBS) (Lonza), 2 mM glutamine, 10 mM HEPES, 1 mM sodium pyruvate, 100 UI/mL penicillin and 100 μg/mL streptomycin. Cells were growth in a humidified incubator with 5% CO2 at 37 °C.\nThe cells were maintained in standard growth media as detailed above and seeded at exponential growth density (6000 cells per well) in 96-well plates (BD Falcon, France). The cells were then treated with vehicle or tests compounds (from 0.01 μM to 10 μM) for 24–72 h. The mitochondrial metabolization of the tetrazolium salt 3-(4,5-methyltiazol-2yl-)-2,5diphenyl-tetrazolium bromide] (MTT) (Applichen, Darmstadt, Germany) was used as an indicator of cell viability.\nFigure 6 Effects of lignans on ER+ breast cancer cell viability. […] Then, the mitochondrial metabolization of MTT was used as an indicator of cell viability, as described in the Material and Methods. Data are expressed as mean ± SEM for at least three independent experiments, where each concentration is tested in triplicate. * p < 0.05, ** p < 0.01, and *** p < 0.001 versus VEH-treated cells."}, "[4]": {"system": "E2-induced ERE-luciferase activity in T47D-KBluc cells", "experiment": "ERE-luciferase reporter in T47D-KBluc cells, antagonist assessment (presence of 0.1 nM E2)", "type": "cell-based", "conditions": "Homo sapiens", "procedure": "as §1\nas §2, with “Then, the media was replaced with 1 mL/well of dosing media and test compounds incubated 24 h.” left out"}, "[5]": {"conditions": "read-out: IC50 (inhibition of Fluormone tracer binding to rhERα)"}, "[6]": {"conditions": "read-out: IC50 (reduction of E2-induced Emax), lignans 1 μM to 10 μM, 1 h before 0.1 nM E2 for 18 h, predicted by nonlinear regression, Mean ± SE"}}, "note": "Values joined by “and” are separate entries in the source; they are usually repeats but may differ in a detail not shown here. Equal values may be shown once. Read-outs that look alike come from different tables or passages of the source."}
{"smiles": "COc1ccc(C[C@H]2C(O)OC[C@@H]2Cc2ccc3c(c2)OCO3)cc1OC", "note": "(mixture of isomers) [Compound 5, (3R,4R)-4-(Benzo[d][1,3]dioxol-5-ylmethyl)-3-(3,4-dimethoxybenzyl) Tetrahydro Furan-2-ol]", "values": [{"measurement": "IC50", "setting": "[1]; [5]", "value": "3.24 ± 2.03", "unit": "µM"}, {"measurement": "Emax", "setting": "[2]", "value": "22.7 ± 4.26", "unit": "%"}, {"measurement": "E/Emax (%) VEH", "setting": "[2]", "value": "weak estrogenic activity"}]}
{"smiles": "COc1ccc(C[C@H]2COC(O)[C@@H]2Cc2ccc(OC)c(OC)c2)cc1OC", "note": "(mixture of isomers) [Compound 6, (3R,4R)-3,4-Bis(3,4-dimethoxybenzyl)tetrahydrofuran-2-ol]", "values": [{"measurement": "reduction of cell viability", "setting": "[3]", "value": 16.6, "unit": "%"}, {"measurement": "Emax", "setting": "[2]", "value": "5.86 ± 0.84", "unit": "%"}]}
{"smiles": "COc1ccc(C[C@H]2C(=O)OC[C@@H]2Cc2ccc3c(c2)OCO3)cc1OC", "note": "[Compound 1, (−)-Bursehernin]", "values": [{"measurement": "IC50", "setting": "[1]; IC50 (inhibition of Fluormone tracer binding to rhERα)", "value": "0.39 ± 0.19", "unit": "µM"}, {"measurement": "IC50", "setting": "[4]; lignans 1 μM to 10 μM, 1 h before 0.1 nM E2 for 18 h, predicted by nonlinear regression, Mean ± SE, read-out: IC50 (reduction of E2-induced Emax)", "value": "< 20", "unit": "µM"}, {"measurement": "reduction of cell viability", "setting": "[3]", "value": "reduced cell viability"}, {"measurement": "Emax", "setting": "[2]", "value": "17.6 ± 5.4", "unit": "%"}]}
{"smiles": "O=C1OC[C@H](Cc2ccc(O)c(O)c2)[C@H]1Cc1ccc(O)c(O)c1", "note": "[Compound 3, (3R,4R)-3,4-Bis(3,4-dihydroxybenzyl)dihydrofuran-2(3H)-one]", "values": [{"measurement": "IC50", "setting": "[1]; [5]", "value": "0.6 ± 0.11", "unit": "µM"}, {"measurement": "Emax", "setting": "[2]", "value": "24.5 ± 6.53", "unit": "%"}, {"measurement": "E/Emax (%) VEH", "setting": "[2]", "value": "weak estrogenic activity"}]}
{"smiles": "COc1ccc(C[C@H]2C(=O)OC[C@@H]2Cc2ccc(O)c(O)c2)cc1OC", "note": "[Compound 4, (3R,4R)-4-(3,4-Dihydroxybenzyl)-3-(3,4-dimethoxybenzyl)dihydrofuran-2(3H)-one]", "values": [{"measurement": "IC50", "setting": "[1]; [5]", "value": "6 µM and 6.04 µM"}, {"measurement": "IC50", "setting": "[4]; [6]", "value": "> 10", "unit": "µM"}, {"measurement": "Emax", "setting": "[2]", "value": "15.8 ± 2.15", "unit": "%"}]}
{"smiles": "CC/C(=C(\\c1ccc(O)cc1)c1ccc(OCCN(C)C)cc1)c1ccccc1", "note": "[Compound 4-OHTAM, 4-hydroxytamoxifen, reference compound]", "values": [{"measurement": "IC50", "setting": "[4]; read-out: IC50 (abolition of E2 effect by coincubation), antiestrogen coincubated with E2", "value": "0.38 ± 0.009", "unit": "µM"}]}
{"smiles": "COc1ccc(C[C@@H](CO)[C@H](CO)Cc2ccc3c(c2)OCO3)cc1OC", "note": "[Compound 7, (2R,3R)-2-(Benzo[d][1,3]dioxol-5-ylmethyl)-3-(3,4-dimethoxybenzyl)butane-1,4-diol]", "values": [{"measurement": "IC50", "setting": "[1]; [5]", "value": "4 ± 1.6", "unit": "µM"}, {"measurement": "Emax", "setting": "[2]", "value": "13.1 ± 2.58", "unit": "%"}]}
{"smiles": "COc1ccc(C[C@@H](CO)[C@H](CO)Cc2ccc(OC)c(OC)c2)cc1OC", "note": "[Compound 8, (2R,3R)-2,3-Bis(3,4-dimethoxybenzyl)butane-1,4-diol]", "values": [{"measurement": "reduction of cell viability", "setting": "[3]", "value": "reduced cell viability"}, {"measurement": "Emax", "setting": "[2]", "value": "9.41 ± 1.88", "unit": "%"}]}
{"smiles": "COc1ccc(C[C@H]2COC[C@@H]2Cc2ccc3c(c2)OCO3)cc1OC", "note": "[Compound 9]", "values": [{"measurement": "IC50", "setting": "[1]; [5]", "value": "8 µM and 7.65 µM"}, {"measurement": "reduction of cell viability", "setting": "[3]", "value": 55.6, "unit": "%"}, {"measurement": "Emax", "setting": "[2]", "value": "23.8 ± 6.34", "unit": "%"}, {"measurement": "E/Emax (%) VEH", "setting": "[2]", "value": "weak estrogenic activity"}]}
{"smiles": "COc1ccc(C[C@H]2COC[C@@H]2Cc2ccc(OC)c(OC)c2)cc1OC", "note": "[Compound 10, (3R,4R)-3,4-Bis(3,4-dimethoxybenzyl)tetrahydrofuran]", "values": [{"measurement": "Emax", "setting": "[2]", "value": "3.91 ± 1.55", "unit": "%"}]}
{"smiles": "COc1ccc(C[C@H]2COC[C@@H]2Cc2ccc(O)c(O)c2)cc1OC", "note": "[Compound 11]", "values": [{"measurement": "IC50", "setting": "[1]; [5]", "value": "0.5 ± 0.17", "unit": "µM"}, {"measurement": "IC50", "setting": "[4]; [6]", "value": "< 20", "unit": "µM"}, {"measurement": "reduction of cell viability", "setting": "[3]", "value": "reduced cell viability"}, {"measurement": "Emax", "setting": "[2]", "value": "12.1 ± 4.33", "unit": "%"}, {"measurement": "E/Emax (%) VEH", "setting": "[2]", "value": "weak estrogenic activity"}]}
{"smiles": "COc1ccc(C[C@@H](COS(C)(=O)=O)[C@H](COS(C)(=O)=O)Cc2ccc3c(c2)OCO3)cc1OC", "note": "[Compound 12, (2R,3R)-2-(Benzo[d][1,3]dioxol-5-ylmethyl)-3-(3,4-dimethoxybenzyl)butane-1,4-diyl Dimethanesulfonate]", "values": [{"measurement": "reduction of cell viability", "setting": "[3]", "value": "reduced cell viability"}, {"measurement": "Emax", "setting": "[2]", "value": "22.2 ± 3.89", "unit": "%"}, {"measurement": "E/Emax (%) VEH", "setting": "[2]", "value": "weak estrogenic activity"}]}
{"smiles": "COc1ccc(C[C@@H](C)[C@H](C)Cc2ccc3c(c2)OCO3)cc1OC", "note": "[Compound 13, 5-((2R,3R)-4-(3,4-Dimethoxyphenyl)-2,3-dimethylbutyl)benzo[d][1,3]dioxole]", "values": [{"measurement": "IC50", "setting": "[1]; [5]", "value": "5.02 ± 1.54", "unit": "µM"}, {"measurement": "reduction of cell viability", "setting": "[3]", "value": "reduced cell viability"}, {"measurement": "Emax", "setting": "[2]", "value": "16.7 ± 3.37", "unit": "%"}]}
{"smiles": "COc1cc2c(cc1OC)-c1cc(O)c(O)cc1C[C@H]1COC(=O)[C@@H]1C2", "note": "[Compound 15, (3aR,13aR)-6,7-Dihydroxy-10,11-dimethoxy-3a,4,13,13a-tetrahydro Dibenzo [4,5:6,7]Cycloocta [1,2-c]Furan-1(3H)-one]", "values": [{"measurement": "Emax", "setting": "[2]", "value": "15.6 ± 5.66", "unit": "%"}]}
{"smiles": "O=C1OC[C@@H]2Cc3cc(O)c(O)cc3-c3cc(O)c(O)cc3C[C@@H]12", "note": "[Compound 16, (3aR,13aR)-6,7,10,11-Tetrahydroxy-3a,4,13,13a-tetrahydrodibenzo [4,5:6,7] Cycloocta [1,2-c]Furan-1(3H)-One]", "values": [{"measurement": "Emax", "setting": "[2]", "value": "11.3 ± 3.47", "unit": "%"}]}
{"smiles": "C[C@]12CC[C@@H]3c4ccc(O)cc4CC[C@H]3[C@@H]1CC[C@@H]2O", "note": "[Compound E2, 17β-estradiol, reference compound]", "values": [{"measurement": "Emax", "setting": "[2]", "value": "100 ± 11.3", "unit": "%"}]}
